Measured values reported in BindingDB's records for PubMed 7910212 (Yamanouchi Pharmaceutical, 1994).
Where “and” joins values, the source holds several entries; their conditions need not be identical. Identical values can stand only once.

Experiments:
[1] = molecular target: T1, Gastrin/cholecystokinin type B receptor (Rattus norvegicus, UniProt P30553)
T1 sequence (P30553 whole entry): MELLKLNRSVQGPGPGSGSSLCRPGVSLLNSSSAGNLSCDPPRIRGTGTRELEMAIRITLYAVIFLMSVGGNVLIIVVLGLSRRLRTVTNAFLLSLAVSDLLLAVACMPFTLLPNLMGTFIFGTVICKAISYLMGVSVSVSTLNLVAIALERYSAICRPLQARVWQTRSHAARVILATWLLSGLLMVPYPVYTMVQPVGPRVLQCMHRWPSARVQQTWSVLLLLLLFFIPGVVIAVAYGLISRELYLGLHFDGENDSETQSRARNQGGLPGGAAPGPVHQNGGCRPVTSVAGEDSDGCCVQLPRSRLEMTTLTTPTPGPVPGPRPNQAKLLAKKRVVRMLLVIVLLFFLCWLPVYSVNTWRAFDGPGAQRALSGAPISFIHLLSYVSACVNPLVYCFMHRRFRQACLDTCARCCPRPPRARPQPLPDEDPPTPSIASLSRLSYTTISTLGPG

Mu-type opioid receptor = Mu-type opioid receptor (Rattus norvegicus, UniProt P33535)
[2] = molecular target: 5-hydroxytryptamine receptor 2A (Rattus norvegicus, UniProt P14842)
Histamine H1 receptor = Histamine H1 receptor (Cavia porcellus, UniProt P31389)
[3] = molecular target: Kappa-type opioid receptor (Rattus norvegicus, UniProt P34975)
[4] = molecular target: T2, 5-hydroxytryptamine receptor 1A (Rattus norvegicus, UniProt P19327)
T2 sequence (P19327 whole entry): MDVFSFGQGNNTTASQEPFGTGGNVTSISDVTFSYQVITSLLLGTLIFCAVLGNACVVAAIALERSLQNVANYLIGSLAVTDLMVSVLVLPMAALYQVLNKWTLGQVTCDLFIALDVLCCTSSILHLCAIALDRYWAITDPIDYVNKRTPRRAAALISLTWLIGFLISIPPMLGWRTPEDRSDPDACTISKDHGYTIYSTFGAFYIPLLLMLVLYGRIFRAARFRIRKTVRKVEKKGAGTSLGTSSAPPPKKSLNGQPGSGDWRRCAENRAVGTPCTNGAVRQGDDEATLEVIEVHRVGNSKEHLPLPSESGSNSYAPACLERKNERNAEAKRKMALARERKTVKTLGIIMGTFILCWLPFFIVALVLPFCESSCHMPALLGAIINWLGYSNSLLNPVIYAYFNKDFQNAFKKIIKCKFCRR

D(2) dopamine receptor = D(2) dopamine receptor (Rattus norvegicus, UniProt P61169)
[5] = molecular target: T3, Alpha-1A adrenergic receptor (Rattus norvegicus, UniProt P43140)
T3 sequence (P43140 whole entry): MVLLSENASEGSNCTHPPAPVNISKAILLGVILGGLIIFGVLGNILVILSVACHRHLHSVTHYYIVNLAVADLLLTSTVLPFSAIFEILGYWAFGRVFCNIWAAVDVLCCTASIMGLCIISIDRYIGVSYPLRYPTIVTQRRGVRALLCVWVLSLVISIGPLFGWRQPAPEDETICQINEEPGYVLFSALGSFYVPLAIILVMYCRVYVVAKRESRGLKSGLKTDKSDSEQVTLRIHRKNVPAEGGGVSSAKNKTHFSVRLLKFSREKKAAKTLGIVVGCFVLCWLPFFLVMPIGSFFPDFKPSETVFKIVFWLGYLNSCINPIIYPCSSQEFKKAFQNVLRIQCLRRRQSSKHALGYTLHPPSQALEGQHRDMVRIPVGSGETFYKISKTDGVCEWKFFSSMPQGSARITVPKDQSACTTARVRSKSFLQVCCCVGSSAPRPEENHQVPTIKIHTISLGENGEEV

[6] = molecular target: Gamma-aminobutyric acid receptor subunit alpha-1 (Rattus norvegicus, UniProt P62813)
[7] = molecular target: T4, Alpha-2C adrenergic receptor (Rattus norvegicus, UniProt P22086)
T4 sequence (P22086 whole entry): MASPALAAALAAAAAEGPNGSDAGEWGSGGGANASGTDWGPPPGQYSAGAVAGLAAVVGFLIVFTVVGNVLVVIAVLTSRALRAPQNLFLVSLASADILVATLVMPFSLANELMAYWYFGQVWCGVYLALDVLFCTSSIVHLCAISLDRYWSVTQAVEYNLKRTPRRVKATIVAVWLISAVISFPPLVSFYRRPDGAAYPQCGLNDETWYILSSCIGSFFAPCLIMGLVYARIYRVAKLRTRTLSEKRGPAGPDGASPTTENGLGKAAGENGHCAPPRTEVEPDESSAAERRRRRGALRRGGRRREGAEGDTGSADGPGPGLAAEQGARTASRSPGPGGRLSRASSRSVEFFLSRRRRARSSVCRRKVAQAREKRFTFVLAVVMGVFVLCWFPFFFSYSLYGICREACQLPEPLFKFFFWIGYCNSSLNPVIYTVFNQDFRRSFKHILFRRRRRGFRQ

[8] = molecular target: T5, Muscarinic acetylcholine receptor M2 (Rattus norvegicus, UniProt P10980)
T5 sequence (P10980 whole entry): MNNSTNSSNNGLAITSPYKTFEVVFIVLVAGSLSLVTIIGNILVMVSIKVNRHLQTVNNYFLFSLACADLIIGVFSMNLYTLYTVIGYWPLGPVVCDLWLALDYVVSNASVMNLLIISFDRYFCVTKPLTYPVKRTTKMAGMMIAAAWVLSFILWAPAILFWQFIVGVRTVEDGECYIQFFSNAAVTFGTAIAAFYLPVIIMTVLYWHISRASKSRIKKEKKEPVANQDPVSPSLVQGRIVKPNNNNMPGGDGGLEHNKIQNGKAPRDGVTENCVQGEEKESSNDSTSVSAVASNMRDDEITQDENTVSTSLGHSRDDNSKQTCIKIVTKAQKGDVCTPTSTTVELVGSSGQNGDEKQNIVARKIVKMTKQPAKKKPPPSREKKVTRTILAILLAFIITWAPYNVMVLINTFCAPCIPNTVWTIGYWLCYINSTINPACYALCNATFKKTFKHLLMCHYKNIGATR

[9] = molecular target: T6, Muscarinic acetylcholine receptor M1 (Rattus norvegicus, UniProt P08482)
T6 sequence (P08482 whole entry): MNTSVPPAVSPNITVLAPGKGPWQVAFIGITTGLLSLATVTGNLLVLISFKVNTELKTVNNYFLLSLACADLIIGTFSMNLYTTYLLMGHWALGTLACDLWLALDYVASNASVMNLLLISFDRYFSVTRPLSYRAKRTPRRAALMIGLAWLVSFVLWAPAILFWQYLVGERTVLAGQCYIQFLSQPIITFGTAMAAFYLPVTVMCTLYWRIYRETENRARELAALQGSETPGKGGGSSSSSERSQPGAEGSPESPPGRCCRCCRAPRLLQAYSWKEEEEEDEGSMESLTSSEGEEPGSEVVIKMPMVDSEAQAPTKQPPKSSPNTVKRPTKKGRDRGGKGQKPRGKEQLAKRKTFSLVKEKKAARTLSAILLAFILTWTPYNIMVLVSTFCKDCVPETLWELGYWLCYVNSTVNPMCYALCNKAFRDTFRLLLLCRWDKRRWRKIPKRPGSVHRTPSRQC

[10] = molecular target: Muscarinic acetylcholine receptor M3 (Rattus norvegicus, UniProt P08483)
D(1A) dopamine receptor = D(1A) dopamine receptor (Rattus norvegicus, UniProt P18901)
Glutamate receptor 3 = Glutamate receptor 3 (Rattus norvegicus, UniProt P19492)
[11] = molecular target: Sigma non-opioid intracellular receptor 1 (Rattus norvegicus, UniProt Q9R0C9)
[12] = molecular target: Beta-2 adrenergic receptor (Rattus norvegicus, UniProt P10608)
Sequence of Beta-2 adrenergic receptor (P10608 whole entry): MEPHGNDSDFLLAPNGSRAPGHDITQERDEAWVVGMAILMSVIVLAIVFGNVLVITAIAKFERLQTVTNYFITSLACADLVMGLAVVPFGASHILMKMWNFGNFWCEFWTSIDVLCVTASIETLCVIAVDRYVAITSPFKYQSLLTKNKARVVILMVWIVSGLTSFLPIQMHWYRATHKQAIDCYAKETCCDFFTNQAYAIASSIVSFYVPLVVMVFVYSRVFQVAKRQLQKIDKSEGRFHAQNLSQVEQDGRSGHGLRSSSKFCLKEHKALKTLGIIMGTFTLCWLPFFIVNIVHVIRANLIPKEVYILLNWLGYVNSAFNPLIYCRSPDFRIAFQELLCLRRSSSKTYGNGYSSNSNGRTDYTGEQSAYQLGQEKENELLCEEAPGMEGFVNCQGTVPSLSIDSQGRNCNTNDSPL

Sequence of Histamine H1 receptor (P31389 whole entry): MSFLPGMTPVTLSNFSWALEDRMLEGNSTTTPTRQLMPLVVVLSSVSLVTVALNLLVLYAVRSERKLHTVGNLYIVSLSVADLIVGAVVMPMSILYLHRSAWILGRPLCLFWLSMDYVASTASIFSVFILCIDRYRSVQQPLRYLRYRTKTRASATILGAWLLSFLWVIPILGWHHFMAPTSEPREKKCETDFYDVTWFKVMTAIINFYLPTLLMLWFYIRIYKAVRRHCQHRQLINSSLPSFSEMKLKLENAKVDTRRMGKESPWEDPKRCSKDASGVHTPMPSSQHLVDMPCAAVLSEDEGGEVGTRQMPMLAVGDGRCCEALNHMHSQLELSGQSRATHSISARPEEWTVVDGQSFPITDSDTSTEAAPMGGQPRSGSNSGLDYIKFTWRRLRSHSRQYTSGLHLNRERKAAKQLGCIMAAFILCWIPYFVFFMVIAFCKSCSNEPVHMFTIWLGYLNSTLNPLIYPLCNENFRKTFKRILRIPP
Sequence of D(1A) dopamine receptor (P18901 whole entry): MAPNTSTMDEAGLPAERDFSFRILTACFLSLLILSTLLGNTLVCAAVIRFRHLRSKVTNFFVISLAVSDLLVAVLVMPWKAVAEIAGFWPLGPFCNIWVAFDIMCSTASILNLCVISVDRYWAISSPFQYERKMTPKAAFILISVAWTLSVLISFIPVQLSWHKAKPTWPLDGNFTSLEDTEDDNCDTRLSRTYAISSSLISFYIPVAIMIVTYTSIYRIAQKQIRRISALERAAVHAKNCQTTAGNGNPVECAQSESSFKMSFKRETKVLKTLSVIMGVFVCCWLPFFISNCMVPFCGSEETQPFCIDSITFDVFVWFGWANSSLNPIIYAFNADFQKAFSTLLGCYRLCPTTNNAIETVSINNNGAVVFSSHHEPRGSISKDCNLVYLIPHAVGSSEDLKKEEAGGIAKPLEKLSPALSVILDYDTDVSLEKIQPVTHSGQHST
Sequence of Mu-type opioid receptor (P33535 whole entry): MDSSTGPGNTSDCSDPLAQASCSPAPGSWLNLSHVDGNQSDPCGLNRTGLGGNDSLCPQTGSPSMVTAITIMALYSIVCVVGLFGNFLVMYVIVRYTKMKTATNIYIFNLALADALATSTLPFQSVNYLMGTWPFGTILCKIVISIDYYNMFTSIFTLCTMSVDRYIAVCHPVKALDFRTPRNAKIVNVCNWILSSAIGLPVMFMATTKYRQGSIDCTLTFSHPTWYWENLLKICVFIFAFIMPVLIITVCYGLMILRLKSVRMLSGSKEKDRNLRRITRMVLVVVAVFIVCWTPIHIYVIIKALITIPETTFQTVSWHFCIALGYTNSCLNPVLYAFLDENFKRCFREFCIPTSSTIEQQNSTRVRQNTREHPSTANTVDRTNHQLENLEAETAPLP
Sequence of Sigma non-opioid intracellular receptor 1 (Q9R0C9 whole entry): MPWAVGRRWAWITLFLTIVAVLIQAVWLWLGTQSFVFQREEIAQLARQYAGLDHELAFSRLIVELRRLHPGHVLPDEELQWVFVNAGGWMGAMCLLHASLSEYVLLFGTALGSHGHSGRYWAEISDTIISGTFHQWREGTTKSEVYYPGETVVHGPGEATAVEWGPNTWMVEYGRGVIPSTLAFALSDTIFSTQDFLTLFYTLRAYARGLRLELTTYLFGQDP
Sequence of 5-hydroxytryptamine receptor 2A (P14842 whole entry): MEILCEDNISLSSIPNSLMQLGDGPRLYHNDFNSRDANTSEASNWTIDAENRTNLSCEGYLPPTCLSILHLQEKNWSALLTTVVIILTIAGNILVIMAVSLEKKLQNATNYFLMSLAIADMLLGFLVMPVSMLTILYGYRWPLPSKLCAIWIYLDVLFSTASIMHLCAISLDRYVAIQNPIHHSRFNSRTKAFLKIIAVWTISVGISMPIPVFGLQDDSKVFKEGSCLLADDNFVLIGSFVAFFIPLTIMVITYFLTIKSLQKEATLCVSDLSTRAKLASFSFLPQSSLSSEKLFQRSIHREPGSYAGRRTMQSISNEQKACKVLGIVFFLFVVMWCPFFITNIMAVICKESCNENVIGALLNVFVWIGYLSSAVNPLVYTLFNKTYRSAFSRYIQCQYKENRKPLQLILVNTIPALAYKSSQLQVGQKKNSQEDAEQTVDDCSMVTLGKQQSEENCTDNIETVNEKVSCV
Sequence of Muscarinic acetylcholine receptor M3 (P08483 whole entry): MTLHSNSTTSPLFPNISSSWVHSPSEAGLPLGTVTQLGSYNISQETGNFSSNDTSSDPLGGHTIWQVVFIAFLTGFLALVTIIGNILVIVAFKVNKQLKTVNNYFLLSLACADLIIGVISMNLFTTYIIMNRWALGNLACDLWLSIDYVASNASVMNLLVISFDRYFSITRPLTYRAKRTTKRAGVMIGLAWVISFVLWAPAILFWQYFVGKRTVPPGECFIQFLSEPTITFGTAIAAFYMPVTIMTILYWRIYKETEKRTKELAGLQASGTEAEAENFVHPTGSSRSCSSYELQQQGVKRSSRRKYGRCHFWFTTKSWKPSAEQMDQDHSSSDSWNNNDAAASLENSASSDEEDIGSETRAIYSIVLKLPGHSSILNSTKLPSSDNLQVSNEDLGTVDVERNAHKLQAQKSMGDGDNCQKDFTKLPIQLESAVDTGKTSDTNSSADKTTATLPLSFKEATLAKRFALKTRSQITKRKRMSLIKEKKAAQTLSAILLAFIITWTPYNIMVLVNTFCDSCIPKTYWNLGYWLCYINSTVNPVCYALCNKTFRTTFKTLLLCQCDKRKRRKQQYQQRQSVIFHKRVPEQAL
Sequence of D(2) dopamine receptor (P61169 whole entry): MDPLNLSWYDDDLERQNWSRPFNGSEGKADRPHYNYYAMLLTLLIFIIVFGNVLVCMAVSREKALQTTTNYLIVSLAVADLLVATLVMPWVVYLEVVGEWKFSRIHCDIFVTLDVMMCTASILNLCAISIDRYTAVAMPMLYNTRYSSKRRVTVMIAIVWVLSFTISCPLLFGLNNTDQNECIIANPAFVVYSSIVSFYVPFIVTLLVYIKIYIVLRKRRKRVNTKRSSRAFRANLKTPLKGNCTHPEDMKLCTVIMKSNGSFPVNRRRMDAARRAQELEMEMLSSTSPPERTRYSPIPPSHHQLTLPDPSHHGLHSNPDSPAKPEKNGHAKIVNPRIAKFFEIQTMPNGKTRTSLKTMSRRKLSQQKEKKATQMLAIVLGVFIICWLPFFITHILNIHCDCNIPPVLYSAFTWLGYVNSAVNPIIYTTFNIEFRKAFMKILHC
Sequence of Gamma-aminobutyric acid receptor subunit alpha-1 (P62813 whole entry): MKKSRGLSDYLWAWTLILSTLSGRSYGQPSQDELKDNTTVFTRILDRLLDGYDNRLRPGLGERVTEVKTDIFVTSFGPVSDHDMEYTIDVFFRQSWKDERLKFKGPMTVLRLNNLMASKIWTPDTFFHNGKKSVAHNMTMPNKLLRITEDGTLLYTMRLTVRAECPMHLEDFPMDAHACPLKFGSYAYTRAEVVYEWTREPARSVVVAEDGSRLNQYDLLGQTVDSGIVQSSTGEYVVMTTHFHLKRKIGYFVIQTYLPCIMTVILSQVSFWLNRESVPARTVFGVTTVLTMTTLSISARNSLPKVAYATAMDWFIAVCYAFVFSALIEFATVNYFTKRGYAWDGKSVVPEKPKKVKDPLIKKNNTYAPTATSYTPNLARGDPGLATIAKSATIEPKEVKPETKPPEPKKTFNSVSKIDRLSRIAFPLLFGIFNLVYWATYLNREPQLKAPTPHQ
Sequence of Glutamate receptor 3 (P19492 whole entry): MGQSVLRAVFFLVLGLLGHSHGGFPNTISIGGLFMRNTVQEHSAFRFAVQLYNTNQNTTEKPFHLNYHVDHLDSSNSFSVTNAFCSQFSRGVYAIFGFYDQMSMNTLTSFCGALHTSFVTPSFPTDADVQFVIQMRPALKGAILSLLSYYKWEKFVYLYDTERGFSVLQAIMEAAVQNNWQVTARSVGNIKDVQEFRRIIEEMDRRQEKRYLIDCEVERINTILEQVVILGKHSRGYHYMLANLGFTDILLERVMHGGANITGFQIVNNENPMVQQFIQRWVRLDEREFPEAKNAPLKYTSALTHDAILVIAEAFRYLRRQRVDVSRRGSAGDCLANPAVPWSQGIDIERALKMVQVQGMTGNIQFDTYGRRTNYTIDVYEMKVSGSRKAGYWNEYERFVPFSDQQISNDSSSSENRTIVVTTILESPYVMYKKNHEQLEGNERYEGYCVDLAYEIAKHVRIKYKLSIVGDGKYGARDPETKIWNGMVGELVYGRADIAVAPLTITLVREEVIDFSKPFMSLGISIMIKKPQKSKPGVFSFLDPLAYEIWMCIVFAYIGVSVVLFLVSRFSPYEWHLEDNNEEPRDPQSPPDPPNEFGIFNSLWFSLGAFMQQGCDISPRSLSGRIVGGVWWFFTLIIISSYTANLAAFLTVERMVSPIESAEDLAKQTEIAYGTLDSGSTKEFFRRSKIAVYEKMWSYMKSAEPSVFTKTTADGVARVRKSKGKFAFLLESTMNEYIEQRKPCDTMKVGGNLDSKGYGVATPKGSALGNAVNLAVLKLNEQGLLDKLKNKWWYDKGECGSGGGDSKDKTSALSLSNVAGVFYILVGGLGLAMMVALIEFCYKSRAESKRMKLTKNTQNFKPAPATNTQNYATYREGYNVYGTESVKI

SMILES | Ki [1] | Ki (Mu-type opioid receptor) [µM] | Ki [2] [µM] | Ki (Histamine H1 receptor) [µM] | Ki [3] [µM] | Ki [4] [µM] | Ki (D(2) dopamine receptor) [µM] | Ki [5] [µM] | Ki [6] [µM] | Ki [7] [µM] | Ki [8] [µM] | Ki [9] [µM] | Ki [10] [µM] | Ki (D(1A) dopamine receptor) [µM] | Ki (Glutamate receptor 3) [µM] | Ki [11] [µM] | Ki [12] [µM]
Cc1cccc(NC(=O)N[C@H]2N=C(c3ccccc3)c3ccccc3N(CC(=O)c3ccccc3C)C2=O)c1 [YM022 S-isomer] | 0.14 µM and 0.49 µM | – | – | – | – | – | – | – | – | – | – | – | – | – | – | – | –
Cc1cccc(NC(=O)N[C@@H]2N=C(c3ccccc3)c3ccccc3N(CC(=O)c3ccccc3C)C2=O)c1 | – | > 10 | > 10 | > 10 | > 10 | > 10 | > 10 | > 10 | > 10 | > 10 | > 10 | > 10 | > 10 | > 10 | > 10 | > 10 | > 10
